Seven compounds from PMC9848300, “Discovery of novel enasidenib analogues targeting inhibition of mutant isocitrate dehydrogenase 2 as antileukaemic agents” (Journal of Enzyme Inhibition and Medicinal Chemistry, 2023) can be followed below.

Substitutions are numbered along the chain they refer to.

In one series the target is T1, IDH2^R140Q (Homo sapiens, UniProt P48735, R140Q).
T1 sequence (P48735 40-452 R140Q): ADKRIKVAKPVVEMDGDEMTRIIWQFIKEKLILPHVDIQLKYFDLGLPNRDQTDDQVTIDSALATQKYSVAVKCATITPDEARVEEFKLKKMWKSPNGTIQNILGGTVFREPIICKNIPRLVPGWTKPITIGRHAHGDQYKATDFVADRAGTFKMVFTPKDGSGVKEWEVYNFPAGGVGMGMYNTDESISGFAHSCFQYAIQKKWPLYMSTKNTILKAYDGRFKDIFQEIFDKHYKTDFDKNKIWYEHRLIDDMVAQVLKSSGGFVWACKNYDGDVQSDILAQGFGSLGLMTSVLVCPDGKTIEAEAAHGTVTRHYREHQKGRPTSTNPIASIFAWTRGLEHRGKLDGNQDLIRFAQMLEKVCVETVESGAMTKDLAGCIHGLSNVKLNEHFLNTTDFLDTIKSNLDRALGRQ
Briefly: biochemical.

In the next series the test system is UACC-257. Kind of series: NCI 60 antitumor screening (single dose / five doses). It is filed as cell-based. The note with it: Homo sapiens; for inhibition at 10 µM: UACC-257 (melanoma), single dose 10 μM, read-out: Growth inhibition percentage (GI %).
The next series in a line: in vitro. The note with it: human.
Series [1] has as its system HL-60(TB) cells. Briefly: Annexin V-FITC/PI apoptosis assay. It counts as cell-based, human. The note with it: GI50 (158 nM), 24 h. The method, then:
Extrinsic as well as intrinsic apoptosis in leukaemia, HL-60(TB) cancer cells, induced by compound 6c was evaluated by Annexin V and PI staining. […] Compound 6c induced an early apoptosis (2.88%), in HL-60(TB) at 24 h compared to control (0.51%) and enhanced late apoptotic induction (15.75%) by more than 85-fold over the untreated cells (0.18%). Moreover, compound 6c induced necrosis by 7 times more than control as declared in Figures 8 and 9.
Annexin V-fluorescein isothiocyanate (Annexin V-FITC) has high affinity to phosphatidylserine (PS). This affinity enables detection of PS by Annexin V-FITC staining as previously described.

Another series deals with 786-0. Kind of series: NCI 60 antitumor screening (single dose / five doses). It counts as cell-based. The note with it: Homo sapiens; for inhibition at 10 µM: 786-0, 786-0 (renal cancer), single dose 10 μM, read-out: Growth inhibition percentage (GI %); for GI50: 786-0, five doses (0.01–100 μM), read-out: GI50.
The next series relates to active Caspase 9. Briefly: Western blot analysis for apoptotic markers. It counts as cell-based, human. The note with it: HL-60(TB) cells. How it is done:
(§1) Cysteine-containing aspartic acid-specific proteases, caspases provide essential links in cell controlling the apoptotic machinery[45]^,[46]. For this reason, this study was further extended to investigate the mechanism of compound 6c to provoke apoptosis in HL-60(TB) leukaemia cell line.
(§2) Compound 6c was incubated with the seeded cells following the procedure described by W. Neal Burnette[60].
(In general: A western blot detects proteins with antibodies after separation by electrophoresis.)

For the next series, the system named is active Caspase 3. Kind of series: Western blot analysis for apoptotic markers. It counts as cell-based, human. The note with it: HL-60(TB) cells. How it is done:
as §1, §2

The next series has as its system DU-145. Kind of series: NCI 60 antitumor screening (single dose / five doses). It is filed as cell-based. The note with it: Homo sapiens; for inhibition at 10 µM: DU-145 (prostate cancer), single dose 10 μM, read-out: Growth inhibition percentage (GI %); for GI50: DU-145, five doses (0.01–100 μM), read-out: GI50.
Another series has as its system RPMI-8226. Described as above. It is filed as cell-based. The note with it: Homo sapiens; for inhibition at 10 µM: RPMI-8226 (leukaemia), single dose 10 μM, read-out: Growth inhibition percentage (GI %); for GI50: RPMI-8226, five doses (0.01–100 μM), read-out: GI50.
The subject of a further series is BT-549. The series is described as above. It is filed as cell-based. The note with it: Homo sapiens; for inhibition at 10 µM: BT-549 (breast cancer), single dose 10 μM, read-out: Growth inhibition percentage (GI %); for GI50: BT-549, five doses (0.01–100 μM), read-out: GI50.
Series [2] relates to HL-60(TB) cells. Kind of series: Cell cycle analysis (PI, flow cytometry). It is filed as cell-based, human. The note with it: 24 h. The method, then: Targeting cancer cell cycle has been emerged as a viable approach for cancer treatment. To recognise the role of compound 6c in GI of cancer cells, and induction of apoptosis in different phases, DNA flow cytometric analysis was performed to measure the effect of compound 6c on cell cycle progression for leukaemia, HL-60(TB) cancer cells.
Following that, two runs of wash with ice-cold phosphate-buffered saline (PBS) were performed. And then, the treated HL-60(TB) cells were centrifuged and frozen in ethanol (70%, ice-cold) then washed in PBS, resuspended with RNase ([…]), stained with PI ([…]), finally analysed by flow cytometry using a FACS Calibur (Becton Dickinson, BD; Franklin Lakes, NJ). To calculate the cell cycle distributions, CellQuest software version 5.1 (Becton Dickinson) was used.

The target in the next series is T2, wild type IDH2 (Homo sapiens, UniProt P48735).
T2 sequence (P48735 40-452): T1 sequence (P48735 40-452 R140Q) with Q101R
Kind of series: IDH2 enzyme inhibition assay (wild type IDH Assay Kit).

Experimental for in vitro: Data was measured in triplicate, and IC50 values are given as mean values ± SD.

For orientation: IC50 means the concentration needed to halve the response being measured. As usually defined, the inhibition is the relative decrease from the control value, in per cent. A word on the GI50: it is the concentration that inhibits growth by half. Turning to `Brc1cccc(/C=N/Nc2nc(N/N=C/c3cccc(Br)c3)nc(N3CCOCC3)n2)c1` [compound 6c, 2,4-Bis[(E)-2-[(3-bromophenyl)methylidene]hydrazin-1-yl]-6-(morpholin-4-yl)-1,3,5-triazine], half-maximal inhibition against IDH2^R140Q (IC50) was put at 102 ± 4.97 nM. Moreover, in the series on UACC-257, the inhibition at 10 µM was determined as 64.1%. Also, in the series “in vitro”, the concentration for half-maximal inhibition (IC50) was determined as 53700 ± 2940 nM. For the same compound, in the series with HL-60(TB) cells [1], the early apoptosis is 2.88%, the late apoptotic induction came out at 15.75%, the “late apoptotic induction over the untreated cells” value was “more than 85 fold” and the “necrosis induction relative to control” value was 7 times. Besides, in the series on 786-0, the inhibition at 10 µM was found to be 75.5% and the GI50 stood at 530 nM. Further, in the series on active Caspase 9, the “expression of active caspase 9 in comparison to the control” value was around 4 fold. For the same compound, the “expression of active caspase 3 in comparison to the control” value in the series on active Caspase 3 is listed as “about 3 fold”. Also, in the series with DU-145, the inhibition at 10 µM came out at 72.7% and the GI50 amounted to 1310 nM. Further, in the series with RPMI-8226, the inhibition at 10 µM is 65.8% and the GI50 came out at 1680 nM. Further, in the series with BT-549, the inhibition at 10 µM amounted to 47.3% and the GI50 is 3540 nM. For the same compound, the “increase of apoptotic cells at the pre-G1 phase compared to DMSO” value in the series on HL-60(TB) cells [2] (158 nM) is on record as 14 fold. Also, in the series with HL-60(TB) cells [2] (GI50 concentration (158 nM)), the “Cell cycle distribution %G0–G1” value is 54.06%, the “Cell cycle distribution %G2/M” value amounted to 4.76%, the “Cell cycle distribution %Pre-G1” value stood at 28.02% and the “Cell cycle distribution %S” value amounted to 41.18%. The midpoint of inhibition against wild type IDH2, the IC50, lay at 2930 ± 110 nM.
Regarding `Fc1cccc(/C=N/Nc2nc(N/N=C/c3cccc(F)c3)nc(N3CCOCC3)n2)c1` [compound 6e, 2,4-Bis[(E)-2-[(3-Fluorophenyl)methylidene]hydrazin-1-yl]-6-(morpholin-4-yl)-1,3,5-triazine], the IC50 was determined as 67 ± 3.27 nM on IDH2^R140Q and 2300 ± 90 nM against wild type IDH2. In addition, the inhibition at 10 µM with UACC-257 is 6.59%; with 786-0, 54%; with DU-145 it was 40.5%; in the series on RPMI-8226, 33%; in the series on BT-549, 11.6%.
As to `Fc1cccc(Cl)c1/C=N/Nc1nc(N/N=C/c2c(F)cccc2Cl)nc(N2CCOCC2)n1` [compound 6l, 2,4-Bis[(E)-2-[(2-Chloro-6-fluorophenyl)methylidene]hydrazin-1-yl]-6-(morpholin-4-yl)-1,3,5-triazine], the concentration for half-maximal inhibition (IC50) on IDH2^R140Q turned out to be 158 ± 7.72 nM; against wild type IDH2 it was 3440 ± 130 nM. Further, the inhibition at 10 µM is 17% in the series on UACC-257; 3.32% in the series with 786-0; 4.76% in the series with DU-145; 41.1% in the series with RPMI-8226; -1.45% in the series with BT-549.
Consider `Oc1ccccc1/C=N/Nc1nc(N/N=C/c2ccccc2O)nc(N2CCCCC2)n1` [compound 7a, 2-[(1e)-(2-{4-[(E)-2-[(2-Hydroxyphenyl)methylidene]hydrazin-1-yl]-6-(piperidin-1-yl)-1,3,5-triazin-2-yl}hydrazin-1-ylidene)methyl] phenol], for which the IC50 against IDH2^R140Q is 130 ± 6.35 nM; at wild type IDH2, 5420 ± 210 nM. Also, the inhibition at 10 µM stood at 20.9% in the series with UACC-257, 26.8% with 786-0, 45.2% in the series with DU-145 and 57.4% in the series on RPMI-8226.
Turning to `Brc1cccc(/C=N/Nc2nc(N/N=C/c3cccc(Br)c3)nc(N3CCCCC3)n2)c1` [compound 7c, 2,4-Bis[(E)-2-[(3-Bromophenyl)methylidene]hydrazin-1-yl]-6-(piperidin-1-yl)-1,3,5-triazine], the IC50 at IDH2^R140Q stood at 88.9 ± 4.34 nM; at wild type IDH2, 3130 ± 120 nM. Further, the inhibition at 10 µM with UACC-257 was -4.98%; in the series with 786-0, 4.36%; with DU-145, -1.2%; in the series with RPMI-8226, 11.8%; in the series on BT-549, -13.1%.
Take `Fc1cccc(/C=N/Nc2nc(N/N=C/c3cccc(F)c3)nc(N3CCCCC3)n2)c1` [compound 7e, 2,4-Bis[(E)-2-[(3-Fluorophenyl)methylidene]hydrazin-1-yl]-6-(piperidin-1-yl)-1,3,5-triazine]: the IC50 on IDH2^R140Q amounted to 176 ± 8.6 nM; on wild type IDH2 it was 5070 ± 200 nM. Also, the inhibition at 10 µM in the series with UACC-257 was -0.08%; in the series with 786-0, 10.5%; in the series on DU-145 it was 2.92%; in the series on RPMI-8226, 38.8%; in the series on BT-549, -5.92%.
For `Fc1cccc(Cl)c1/C=N/Nc1nc(N/N=C/c2c(F)cccc2Cl)nc(N2CCCCC2)n1` [compound 7l, 2,4-Bis[(E)-2-[(2-Chloro-6-fluorophenyl)methylidene]hydrazin-1-yl]-6-(piperidin-1-yl)-1,3,5-triazine], the half-inhibitory concentration (IC50) against IDH2^R140Q turned out to be 160 ± 7.81 nM; against wild type IDH2 it was 9500 ± 370 nM. Moreover, the inhibition at 10 µM in the series on UACC-257 was 88.3%; with 786-0, 71.7%; in the series with DU-145, 39%; in the series with RPMI-8226 it was 96.7%; with BT-549, 31.6%. The GI50 in the series with UACC-257 (UACC-257, five doses (0.01–100 μM), read-out: GI50) is 2390 nM; in the series with 786-0, 3440 nM; in the series with DU-145, 11700 nM; with RPMI-8226, 2260 nM; in the series with BT-549, 4450 nM.
